Holding throughout (assay): Kinase selectivity, scanMAX Kinase assay panel (DiscoverX), % control at 1 uM
Assay type in all cases: binding

The target in assay [1] is T1, scanMAX Kinase assay panel (Homo sapiens, UniProt O95382).
T1 construct: purchased DiscoverX
T1 sequence (O95382 1-1288): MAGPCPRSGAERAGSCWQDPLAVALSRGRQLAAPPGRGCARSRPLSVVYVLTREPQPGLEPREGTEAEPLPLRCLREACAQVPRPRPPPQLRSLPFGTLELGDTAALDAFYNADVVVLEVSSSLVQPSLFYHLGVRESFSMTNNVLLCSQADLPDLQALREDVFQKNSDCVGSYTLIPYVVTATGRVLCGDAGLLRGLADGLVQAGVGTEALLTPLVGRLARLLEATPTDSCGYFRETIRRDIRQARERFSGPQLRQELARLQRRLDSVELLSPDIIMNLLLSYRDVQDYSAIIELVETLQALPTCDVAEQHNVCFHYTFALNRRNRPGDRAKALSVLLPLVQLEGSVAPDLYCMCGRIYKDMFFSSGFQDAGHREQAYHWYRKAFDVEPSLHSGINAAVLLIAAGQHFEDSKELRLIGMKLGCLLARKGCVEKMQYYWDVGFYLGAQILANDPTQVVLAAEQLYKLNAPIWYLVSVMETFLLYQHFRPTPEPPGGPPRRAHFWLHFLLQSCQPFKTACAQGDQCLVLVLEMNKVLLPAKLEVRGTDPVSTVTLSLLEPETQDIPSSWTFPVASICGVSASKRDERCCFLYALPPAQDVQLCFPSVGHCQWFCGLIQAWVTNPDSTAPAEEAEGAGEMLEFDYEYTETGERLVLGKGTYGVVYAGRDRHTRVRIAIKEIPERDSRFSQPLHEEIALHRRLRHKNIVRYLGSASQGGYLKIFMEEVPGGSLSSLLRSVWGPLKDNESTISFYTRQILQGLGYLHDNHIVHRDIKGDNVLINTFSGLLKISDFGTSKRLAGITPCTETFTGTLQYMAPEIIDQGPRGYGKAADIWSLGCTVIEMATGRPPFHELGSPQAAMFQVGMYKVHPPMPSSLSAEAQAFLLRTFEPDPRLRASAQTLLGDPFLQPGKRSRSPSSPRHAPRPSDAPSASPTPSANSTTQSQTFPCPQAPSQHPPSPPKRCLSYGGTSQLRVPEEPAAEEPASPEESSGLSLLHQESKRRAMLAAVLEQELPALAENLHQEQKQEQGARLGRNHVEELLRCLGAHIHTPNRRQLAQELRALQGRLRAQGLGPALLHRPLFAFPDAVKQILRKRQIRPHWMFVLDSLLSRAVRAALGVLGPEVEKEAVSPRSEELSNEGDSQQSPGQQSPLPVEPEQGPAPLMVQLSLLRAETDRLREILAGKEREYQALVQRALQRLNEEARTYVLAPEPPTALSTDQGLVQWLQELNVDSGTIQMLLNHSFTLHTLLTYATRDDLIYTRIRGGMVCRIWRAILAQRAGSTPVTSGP
The conditions noted are these: ASK2; 1 uM; read-out: Percent Control (%). The procedure, abridged:
(§1)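 Binding across the scanMAX kinase panel was tested at 1 uM compound. % control = (compound − positive control)/(negative control − positive control) × 100; below 35 counted as active.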

Assay [2] deals with T2, scanMAX Kinase assay panel (Homo sapiens, UniProt Q8IU85).
T2 construct: purchased DiscoverX
The conditions noted are these: CAMK1D; 1 uM; read-out: Percent Control (%). The procedure, abridged:
as §1

In assay [3] the target is T3, scanMAX Kinase assay panel (Homo sapiens, UniProt Q02763).
T3 construct: purchased DiscoverX
The conditions noted are these: TIE2; 1 uM; read-out: Percent Control (%). The method in brief: as §1

Assay [4] concerns the target T4, scanMAX Kinase assay panel (Homo sapiens, UniProt Q9UHD2).
T4 construct: purchased DiscoverX
T4 sequence (Q9UHD2 1-729): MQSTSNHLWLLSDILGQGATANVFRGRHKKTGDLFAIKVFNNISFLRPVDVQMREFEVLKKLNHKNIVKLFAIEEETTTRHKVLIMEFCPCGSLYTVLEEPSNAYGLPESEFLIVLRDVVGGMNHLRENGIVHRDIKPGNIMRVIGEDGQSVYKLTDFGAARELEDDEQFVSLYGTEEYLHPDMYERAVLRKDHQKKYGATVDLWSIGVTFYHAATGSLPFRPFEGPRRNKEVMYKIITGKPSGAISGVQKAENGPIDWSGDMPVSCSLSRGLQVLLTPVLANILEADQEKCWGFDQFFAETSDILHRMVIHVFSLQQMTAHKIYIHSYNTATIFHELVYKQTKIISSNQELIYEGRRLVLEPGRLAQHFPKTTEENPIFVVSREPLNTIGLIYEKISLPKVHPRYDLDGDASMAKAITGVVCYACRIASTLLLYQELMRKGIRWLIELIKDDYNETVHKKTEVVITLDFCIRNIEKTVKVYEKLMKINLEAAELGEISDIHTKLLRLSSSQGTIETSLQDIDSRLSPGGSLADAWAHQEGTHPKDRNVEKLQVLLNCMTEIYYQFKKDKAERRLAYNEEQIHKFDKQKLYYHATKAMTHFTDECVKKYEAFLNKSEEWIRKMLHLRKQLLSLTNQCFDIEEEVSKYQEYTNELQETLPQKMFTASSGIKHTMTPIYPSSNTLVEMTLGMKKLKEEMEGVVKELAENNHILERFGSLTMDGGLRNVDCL
The conditions noted are these: TBK1; 1 uM; read-out: Percent Control (%). The method in brief: as §1

The structures appear in SMILES notation.

T3 sequence (Q02763 23-1124): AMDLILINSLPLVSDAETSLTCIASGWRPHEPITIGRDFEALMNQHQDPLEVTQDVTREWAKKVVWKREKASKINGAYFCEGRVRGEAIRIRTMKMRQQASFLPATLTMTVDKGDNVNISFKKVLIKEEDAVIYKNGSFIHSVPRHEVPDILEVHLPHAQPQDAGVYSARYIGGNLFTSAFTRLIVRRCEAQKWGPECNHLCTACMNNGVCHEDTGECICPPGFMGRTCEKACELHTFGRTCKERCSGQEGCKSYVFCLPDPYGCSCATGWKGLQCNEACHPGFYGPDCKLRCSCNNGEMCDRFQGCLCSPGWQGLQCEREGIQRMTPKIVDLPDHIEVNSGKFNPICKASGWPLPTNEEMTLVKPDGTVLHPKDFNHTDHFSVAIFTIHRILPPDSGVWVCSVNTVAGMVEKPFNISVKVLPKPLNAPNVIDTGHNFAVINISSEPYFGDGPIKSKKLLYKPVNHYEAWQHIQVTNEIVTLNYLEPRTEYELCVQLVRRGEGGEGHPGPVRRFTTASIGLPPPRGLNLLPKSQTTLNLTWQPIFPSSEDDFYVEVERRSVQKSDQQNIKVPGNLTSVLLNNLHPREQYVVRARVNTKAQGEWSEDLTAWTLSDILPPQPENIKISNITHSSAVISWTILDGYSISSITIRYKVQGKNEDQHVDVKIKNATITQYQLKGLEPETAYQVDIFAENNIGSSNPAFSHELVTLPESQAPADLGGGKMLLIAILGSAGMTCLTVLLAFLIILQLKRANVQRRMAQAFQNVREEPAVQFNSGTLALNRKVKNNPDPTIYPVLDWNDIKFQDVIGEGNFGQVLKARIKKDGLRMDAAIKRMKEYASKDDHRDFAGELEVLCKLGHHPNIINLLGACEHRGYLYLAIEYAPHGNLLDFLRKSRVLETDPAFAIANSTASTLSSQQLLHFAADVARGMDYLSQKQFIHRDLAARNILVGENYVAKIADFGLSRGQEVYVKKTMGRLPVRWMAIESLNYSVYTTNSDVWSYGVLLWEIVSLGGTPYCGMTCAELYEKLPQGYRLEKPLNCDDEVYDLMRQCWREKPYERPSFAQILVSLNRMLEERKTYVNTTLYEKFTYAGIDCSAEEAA
T2 sequence (Q8IU85 whole entry): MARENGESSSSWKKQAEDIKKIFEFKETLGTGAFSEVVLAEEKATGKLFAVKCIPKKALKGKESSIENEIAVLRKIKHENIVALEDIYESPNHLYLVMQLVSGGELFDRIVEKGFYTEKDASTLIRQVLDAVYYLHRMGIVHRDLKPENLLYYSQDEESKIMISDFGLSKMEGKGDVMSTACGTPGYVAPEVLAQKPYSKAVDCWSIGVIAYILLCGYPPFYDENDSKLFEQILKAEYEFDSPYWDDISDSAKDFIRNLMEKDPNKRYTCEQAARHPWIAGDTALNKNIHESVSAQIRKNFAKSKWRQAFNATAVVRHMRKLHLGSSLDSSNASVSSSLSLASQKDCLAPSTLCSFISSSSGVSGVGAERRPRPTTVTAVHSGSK

As for `Cc1ccc(C(=O)Nc2ccc(CN3CCN(C)CC3)c(C(F)(F)F)c2)cc1C#Cc1cnc2c(Nc3cnn(C)c3)cccn12` [Example 1, 4-methyl-3-((8-((1-methyl-1H-pyrazol-4-yl)amino)imidazo[1,2-a]pyridin-3-yl)ethynyl)-N-(4-((4-methylpiperazin-1-yl)methyl)-3-(trifluoromethyl)phenyl)benzamide], the remaining binding at 1 µM in assay [1] worked out at 71%; in assay [2], 65%; in assay [3] it was 0%; in assay [4], 68%.
In the same order, the values of `Cc1ccc(NC(=O)C2(C(=O)Nc3ccc(F)cc3)CC2)cc1C#Cc1cnc2c(Nc3cnn(C(C)C)c3)cccn12` [Example 78] are 100%, 98%, 16% and 100%.
Consider `Cc1cn(-c2cc(NC(=O)c3ccc(C)c(C#Cc4cnc5c(Nc6cnn(C)c6)cccn45)c3)cc(C(F)(F)F)c2)cn1` [Example 12, 4-methyl-N-(3-(4-methyl-1H-imidazol-1-yl)-5-(trifluoromethyl)phenyl)-3-((8-((1-methyl-1H-pyrazol-4-yl)amino)imidazo[1,2-a]pyridin-3-yl)ethynyl)benzamide], for which the remaining binding at 1 µM was determined as 81% in assay [1], 82% in assay [2], 0% in assay [3] and 84% in assay [4].

Values taken from patent US10870647B2, “Imidazopyridine derivative, method for preparing same, and pharmaceutical composition containing same as active ingredient for preventing or treating cancer” (DAEGU-GYEONGBUK MEDICAL INNOVATION FOUNDATION, priority 2016, dated 2020).
